Source: ChEMBL document CHEMBL1671662, “In vitro activities of telavancin and six comparator agents against anaerobic bacterial isolates” (2009)

Columns and labels:
Prevotella buccae = experiment: Antibacterial activity against Prevotella buccae by CLSI M11-A6 agar dilution method in presence of beta-lactamase inhibitor Sulbactam; type: functional; settings: Segatella buccae
Prevotella intermedia = experiment: Antibacterial activity against Prevotella intermedia by CLSI M11-A6 agar dilution method in presence of beta-lactamase inhibitor Sulbactam; type: functional
Prevotella nigrescens = experiment: Antibacterial activity against Prevotella nigrescens by CLSI M11-A6 agar dilution method in presence of beta-lactamase inhibitor Sulbactam; type: functional
[1] = system: Prevotella melaninogenica; experiment: Antibacterial activity against Prevotella melaninogenica by CLSI M11-A6 agar dilution method in presence of beta-lactamase inhibitor Sulbactam; type: functional
Hoylesella oralis = experiment: Antibacterial activity against Prevotella oralis by CLSI M11-A6 agar dilution method in presence of beta-lactamase inhibitor Sulbactam; type: functional
[2] = system: Sutterella wadsworthensis; experiment: Antibacterial activity against Sutterella wadsworthensis by CLSI M11-A6 agar dilution method in presence of beta-lactamase inhibitor Sulbactam; type: functional
Clostridium bolteae = experiment: Antibacterial activity against Clostridium bolteae by CLSI M11-A6 agar dilution method in presence of beta-lactamase inhibitor Sulbactam; type: functional; settings: Enterocloster bolteae
[3] = system: Enterocloster clostridioformis; experiment: Antibacterial activity against Clostridium clostridioforme by CLSI M11-A6 agar dilution method in presence of beta-lactamase inhibitor Sulbactam; type: functional
Clostridium perfringens = experiment: Antibacterial activity against Clostridium perfringens by CLSI M11-A6 agar dilution method in presence of beta-lactamase inhibitor Sulbactam; type: functional
Thomasclavelia ramosa = experiment: Antibacterial activity against Clostridium ramosum by CLSI M11-A6 agar dilution method in presence of beta-lactamase inhibitor Sulbactam; type: functional
Clostridium beijerinckii = experiment: Antibacterial activity against Clostridium beijerinckii by CLSI M11-A6 agar dilution method in presence of beta-lactamase inhibitor Sulbactam; type: functional
[4] = system: Paraclostridium bifermentans; experiment: Antibacterial activity against Clostridium bifermentans by CLSI M11-A6 agar dilution method in presence of beta-lactamase inhibitor Sulbactam; type: functional
Clostridium butyricum = experiment: Antibacterial activity against Clostridium butyricum by CLSI M11-A6 agar dilution method in presence of beta-lactamase inhibitor Sulbactam; type: functional
Clostridium leptum = experiment: Antibacterial activity against Clostridium leptum by CLSI M11-A6 agar dilution method in presence of beta-lactamase inhibitor Sulbactam; type: functional
[5] = system: Clostridium paraputrificum; experiment: Antibacterial activity against Clostridium paraputrificum by CLSI M11-A6 agar dilution method in presence of beta-lactamase inhibitor Sulbactam; type: functional
Clostridium scindens = experiment: Antibacterial activity against Clostridium scindens by CLSI M11-A6 agar dilution method in presence of beta-lactamase inhibitor Sulbactam; type: functional
[6] = system: Paeniclostridium sordellii; experiment: Antibacterial activity against Clostridium sordellii by CLSI M11-A6 agar dilution method in presence of beta-lactamase inhibitor Sulbactam; type: functional; settings: Paraclostridium sordellii
Clostridium spiroforme = experiment: Antibacterial activity against Clostridium spiroforme by CLSI M11-A6 agar dilution method in presence of beta-lactamase inhibitor Sulbactam; type: functional; settings: Thomasclavelia spiroformis
[7] = system: Clostridium sporosphaeroides; experiment: Antibacterial activity against Clostridium sporosphaeroides by CLSI M11-A6 agar dilution method in presence of beta-lactamase inhibitor Sulbactam; type: functional; settings: Faecalispora sporosphaeroides
Clostridium sp. = experiment: Antibacterial activity against Clostridium sp. by CLSI M11-A6 agar dilution method in presence of beta-lactamase inhibitor Sulbactam; type: functional
Bifidobacterium bifidum = experiment: Antibacterial activity against Bifidobacterium bifidum by CLSI M11-A6 agar dilution method in presence of beta-lactamase inhibitor Sulbactam; type: functional
Bifidobacterium breve = experiment: Antibacterial activity against Bifidobacterium breve by CLSI M11-A6 agar dilution method in presence of beta-lactamase inhibitor Sulbactam; type: functional
[8] = Antibacterial activity against Bifidobacterium infantis by CLSI M11-A6 agar dilution method in presence of beta-lactamase inhibitor Sulbactam; type: functional, Bifidobacterium longum subsp. infantis; settings: Bifidobacterium longum
[9] = system: Bifidobacterium pseudolongum; experiment: Antibacterial activity against Bifidobacterium pseudolongum by CLSI M11-A6 agar dilution method in presence of beta-lactamase inhibitor Sulbactam; type: functional
[10] = system: Coprobacillus cateniformis; experiment: Antibacterial activity against Coprobacillus cateniformis by CLSI M11-A6 agar dilution method in presence of beta-lactamase inhibitor Sulbactam; type: functional
Blautia luti = experiment: Antibacterial activity against Ruminococcus luti by CLSI M11-A6 agar dilution method in presence of beta-lactamase inhibitor Sulbactam; type: functional
Ruminococcus lactaris = experiment: Antibacterial activity against Ruminococcus lactaris by CLSI M11-A6 agar dilution method in presence of beta-lactamase inhibitor Sulbactam; type: functional
[11] = system: Peptostreptococcus anaerobius; experiment: Antibacterial activity against Peptostreptococcus anaerobius by CLSI M11-A6 agar dilution method in presence of beta-lactamase inhibitor Sulbactam; type: functional
[12] = system: Streptococcus constellatus; experiment: Antibacterial activity against Streptococcus constellatus by CLSI M11-A6 agar dilution method in presence of beta-lactamase inhibitor Sulbactam; type: functional
Bacteroides ovatus = experiment: Antibacterial activity against Bacteroides ovatus by CLSI M11-A6 agar dilution method in presence of beta-lactamase inhibitor Sulbactam; type: functional
[13] = system: Bacteroides thetaiotaomicron; experiment: Antibacterial activity against Bacteroides thetaiotaomicron by CLSI M11-A6 agar dilution method in presence of beta-lactamase inhibitor Sulbactam; type: functional
Phocaeicola vulgatus = experiment: Antibacterial activity against Bacteroides vulgatus by CLSI M11-A6 agar dilution method in presence of beta-lactamase inhibitor Sulbactam; type: functional
Bilophila wadsworthia = experiment: Antibacterial activity against Bilophila wadsworthia by CLSI M11-A6 agar dilution method in presence of beta-lactamase inhibitor Sulbactam; type: functional
Fusobacterium varium = experiment: Antibacterial activity against Fusobacterium varium by CLSI M11-A6 agar dilution method in presence of beta-lactamase inhibitor Sulbactam; type: functional
Prevotella bivia = experiment: Antibacterial activity against Prevotella bivia by CLSI M11-A6 agar dilution method in presence of beta-lactamase inhibitor Sulbactam; type: functional

Q: Which MIC50 (Prevotella buccae) does the source give for `CC1(C)S[C@@H]2[C@H](NC(=O)[C@H](N)c3ccccc3)C(=O)N2[C@H]1C(=O)O` [AMPICILLIN] here?
A: Its MIC50 is at most 0.12 µg/mL.

Q: And the MIC90 (Prevotella buccae)?
A: The MIC90 was 2 µg/mL.

Q: And the MIC50 (Prevotella intermedia)?
A: Its MIC50 is at most 0.12 µg/mL.

Q: What about the MIC90 (Prevotella intermedia) of the same compound?
A: Its MIC90 is 2 µg/mL.

Q: What about the MIC50 (Prevotella nigrescens) of the same compound?
A: The MIC50 was at most 0.12 µg/mL.

Q: What about the MIC90 (Prevotella nigrescens) of the same compound?
A: The MIC90 was 2 µg/mL.

Q: And the MIC50 [1]?
A: Its MIC50 is at most 0.12 µg/mL.

Q: And the MIC90 [1]?
A: The MIC90 was 2 µg/mL.

Q: And the MIC50 (Hoylesella oralis)?
A: Its MIC50 is at most 0.12 µg/mL.

Q: What about the MIC90 (Hoylesella oralis) of the same compound?
A: Its MIC90 is 2 µg/mL.

Q: What about the MIC [2] of the same compound?
A: The MIC was 0.25 µg/mL.

Q: And the MIC50 (Clostridium bolteae)?
A: Its MIC50 is 8 µg/mL.

Q: What about the MIC90 (Clostridium bolteae) of the same compound?
A: The MIC90 was 16 µg/mL.

Q: And the MIC50 [3]?
A: Its MIC50 is 2 µg/mL.

Q: What about the MIC90 [3] of the same compound?
A: The MIC90 was 16 µg/mL.

Q: What about the MIC (Clostridium perfringens) of the same compound?
A: Its MIC is at most 0.12 µg/mL.

Q: What about the MIC50 (Clostridium perfringens) of the same compound?
A: The MIC50 was at most 0.12 µg/mL.

Q: And the MIC90 (Clostridium perfringens)?
A: Its MIC90 is at most 0.12 µg/mL.

Q: And the MIC50 (Thomasclavelia ramosa)?
A: Its MIC50 is at most 0.12 µg/mL.

Q: And the MIC90 (Thomasclavelia ramosa)?
A: Its MIC90 is 0.5 µg/mL.

Q: What about the MIC50 (Clostridium beijerinckii) of the same compound?
A: Its MIC50 is 0.25 µg/mL.

Q: What about the MIC90 (Clostridium beijerinckii) of the same compound?
A: The MIC90 was 1 µg/mL.

Q: And the MIC50 [4]?
A: Its MIC50 is 0.25 µg/mL.

Q: What about the MIC90 [4] of the same compound?
A: Its MIC90 is 1 µg/mL.

Q: What about the MIC50 (Clostridium butyricum) of the same compound?
A: Its MIC50 is 0.25 µg/mL.

Q: What about the MIC90 (Clostridium butyricum) of the same compound?
A: The MIC90 was 1 µg/mL.

Q: And the MIC50 (Clostridium leptum)?
A: The MIC50 was 0.25 µg/mL.

Q: And the MIC90 (Clostridium leptum)?
A: Its MIC90 is 1 µg/mL.

Q: And the MIC50 [5]?
A: The MIC50 was 0.25 µg/mL.

Q: What about the MIC90 [5] of the same compound?
A: The MIC90 was 1 µg/mL.

Q: And the MIC50 (Clostridium scindens)?
A: Its MIC50 is 0.25 µg/mL.

Q: And the MIC90 (Clostridium scindens)?
A: The MIC90 was 1 µg/mL.

Q: And the MIC50 [6]?
A: Its MIC50 is 0.25 µg/mL.

Q: And the MIC90 [6]?
A: Its MIC90 is 1 µg/mL.

Q: What about the MIC50 (Clostridium spiroforme) of the same compound?
A: Its MIC50 is 0.25 µg/mL.

Q: What about the MIC90 (Clostridium spiroforme) of the same compound?
A: Its MIC90 is 1 µg/mL.

Q: What about the MIC50 [7] of the same compound?
A: The MIC50 was 0.25 µg/mL.

Q: What about the MIC90 [7] of the same compound?
A: Its MIC90 is 1 µg/mL.

Q: What about the MIC50 (Clostridium sp.) of the same compound?
A: The MIC50 was 0.25 µg/mL.

Q: What about the MIC90 (Clostridium sp.) of the same compound?
A: Its MIC90 is 1 µg/mL.

Q: What about the MIC50 (Bifidobacterium bifidum) of the same compound?
A: The MIC50 was 0.25 µg/mL.

Q: And the MIC90 (Bifidobacterium bifidum)?
A: The MIC90 was 1 µg/mL.

Q: What about the MIC50 (Bifidobacterium breve) of the same compound?
A: The MIC50 was 0.25 µg/mL.

Q: And the MIC90 (Bifidobacterium breve)?
A: Its MIC90 is 1 µg/mL.

Q: What about the MIC50 [8] of the same compound?
A: The MIC50 was 0.25 µg/mL.

Q: What about the MIC90 [8] of the same compound?
A: Its MIC90 is 1 µg/mL.

Q: What about the MIC50 [9] of the same compound?
A: Its MIC50 is 0.25 µg/mL.

Q: What about the MIC90 [9] of the same compound?
A: The MIC90 was 1 µg/mL.

Q: What about the MIC50 [10] of the same compound?
A: The MIC50 was 0.25 µg/mL.

Q: And the MIC90 [10]?
A: Its MIC90 is 1 µg/mL.

Q: And the MIC50 (Blautia luti)?
A: The MIC50 was at most 0.12 µg/mL.

Q: What about the MIC90 (Blautia luti) of the same compound?
A: Its MIC90 is 1 µg/mL.

Q: And the MIC50 (Ruminococcus lactaris)?
A: The MIC50 was at most 0.12 µg/mL.

Q: What about the MIC90 (Ruminococcus lactaris) of the same compound?
A: Its MIC90 is 1 µg/mL.

Q: What about the MIC50 [11] of the same compound?
A: The MIC50 was 0.25 µg/mL.

Q: What about the MIC90 [11] of the same compound?
A: The MIC90 was 0.5 µg/mL.

Q: What about the MIC50 [12] of the same compound?
A: Its MIC50 is 0.5 µg/mL.

Q: And the MIC90 [12]?
A: Its MIC90 is 0.5 µg/mL.

Q: What about the MIC50 (Bacteroides ovatus) of the same compound?
A: The MIC50 was 2 µg/mL.

Q: What about the MIC90 (Bacteroides ovatus) of the same compound?
A: The MIC90 was 4 µg/mL.

Q: And the MIC50 [13]?
A: Its MIC50 is 4 µg/mL.

Q: What about the MIC90 [13] of the same compound?
A: The MIC90 was 16 µg/mL.

Q: And the MIC50 (Phocaeicola vulgatus)?
A: The MIC50 was 8 µg/mL.

Q: What about the MIC90 (Phocaeicola vulgatus) of the same compound?
A: The MIC90 was 16 µg/mL.

Q: What about the MIC50 (Bilophila wadsworthia) of the same compound?
A: The MIC50 was 2 µg/mL.

Q: And the MIC90 (Bilophila wadsworthia)?
A: Its MIC90 is 4 µg/mL.

Q: And the MIC50 (Fusobacterium varium)?
A: The MIC50 was 2 µg/mL.

Q: And the MIC90 (Fusobacterium varium)?
A: Its MIC90 is 16 µg/mL.

Q: What about the MIC50 (Prevotella bivia) of the same compound?
A: The MIC50 was at most 0.12 µg/mL.

Q: What about the MIC90 (Prevotella bivia) of the same compound?
A: The MIC90 was 2 µg/mL.
